One test concerns the target p110 delta (Homo sapiens (Human), UniProt O00329). In words: PI3K isoform inhibition assay, p110 delta (fluorescence polarization displacement). It counts as biochemical. A general note: Polarisation of emitted light reports the rotation of a fluorescent probe.
The next test concerns the target p110 alpha (Homo sapiens (Human), UniProt P42336). As to the kind of experiment: PI3K isoform inhibition assay, p110 alpha (for alpha/delta selectivity). The following applies: ratio of biochemical IC50 values. The method, boiled down:
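Fluorescence polarization displacement of a fluorescent PIP3 probe from GRP-1 detector by PI3K-formed PIP3; p110α/p85α at 40 ng/mL with 10 μM PIP2 substrate.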

What is called IC50 is the midpoint of a concentration-inhibition curve. Low readings indicate inhibition by little substance, high ones a need for much substance.

Chain of p110 alpha (P42336 whole entry, canonical isoform): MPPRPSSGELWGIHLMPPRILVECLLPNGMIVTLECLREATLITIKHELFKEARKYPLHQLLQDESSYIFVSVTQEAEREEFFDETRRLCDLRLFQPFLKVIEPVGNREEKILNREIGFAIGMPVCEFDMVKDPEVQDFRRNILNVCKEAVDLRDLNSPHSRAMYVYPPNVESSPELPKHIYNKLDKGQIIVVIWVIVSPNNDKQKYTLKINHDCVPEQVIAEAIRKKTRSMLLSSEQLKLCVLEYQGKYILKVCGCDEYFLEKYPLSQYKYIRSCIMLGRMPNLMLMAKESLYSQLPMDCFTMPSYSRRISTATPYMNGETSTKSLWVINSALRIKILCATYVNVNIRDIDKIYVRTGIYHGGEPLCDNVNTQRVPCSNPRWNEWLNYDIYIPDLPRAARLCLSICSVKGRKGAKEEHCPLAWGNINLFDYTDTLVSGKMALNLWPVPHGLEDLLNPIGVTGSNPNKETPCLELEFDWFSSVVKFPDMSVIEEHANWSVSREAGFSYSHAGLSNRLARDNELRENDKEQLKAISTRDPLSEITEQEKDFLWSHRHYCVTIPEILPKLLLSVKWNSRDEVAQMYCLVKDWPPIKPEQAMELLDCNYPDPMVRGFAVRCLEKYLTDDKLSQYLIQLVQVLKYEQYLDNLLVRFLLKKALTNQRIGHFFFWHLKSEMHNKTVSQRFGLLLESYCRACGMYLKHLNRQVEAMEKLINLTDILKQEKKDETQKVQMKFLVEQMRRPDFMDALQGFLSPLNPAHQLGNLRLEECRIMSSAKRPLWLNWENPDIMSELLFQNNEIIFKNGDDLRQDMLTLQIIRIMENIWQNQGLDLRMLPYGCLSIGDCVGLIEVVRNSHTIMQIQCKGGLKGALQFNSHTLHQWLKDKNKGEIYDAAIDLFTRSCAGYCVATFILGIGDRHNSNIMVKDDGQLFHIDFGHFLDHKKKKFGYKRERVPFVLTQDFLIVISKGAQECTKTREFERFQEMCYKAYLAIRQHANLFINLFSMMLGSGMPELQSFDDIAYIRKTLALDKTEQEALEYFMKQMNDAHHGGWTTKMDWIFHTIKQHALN
Chain of p110 alpha (P27986 whole entry partner, canonical isoform): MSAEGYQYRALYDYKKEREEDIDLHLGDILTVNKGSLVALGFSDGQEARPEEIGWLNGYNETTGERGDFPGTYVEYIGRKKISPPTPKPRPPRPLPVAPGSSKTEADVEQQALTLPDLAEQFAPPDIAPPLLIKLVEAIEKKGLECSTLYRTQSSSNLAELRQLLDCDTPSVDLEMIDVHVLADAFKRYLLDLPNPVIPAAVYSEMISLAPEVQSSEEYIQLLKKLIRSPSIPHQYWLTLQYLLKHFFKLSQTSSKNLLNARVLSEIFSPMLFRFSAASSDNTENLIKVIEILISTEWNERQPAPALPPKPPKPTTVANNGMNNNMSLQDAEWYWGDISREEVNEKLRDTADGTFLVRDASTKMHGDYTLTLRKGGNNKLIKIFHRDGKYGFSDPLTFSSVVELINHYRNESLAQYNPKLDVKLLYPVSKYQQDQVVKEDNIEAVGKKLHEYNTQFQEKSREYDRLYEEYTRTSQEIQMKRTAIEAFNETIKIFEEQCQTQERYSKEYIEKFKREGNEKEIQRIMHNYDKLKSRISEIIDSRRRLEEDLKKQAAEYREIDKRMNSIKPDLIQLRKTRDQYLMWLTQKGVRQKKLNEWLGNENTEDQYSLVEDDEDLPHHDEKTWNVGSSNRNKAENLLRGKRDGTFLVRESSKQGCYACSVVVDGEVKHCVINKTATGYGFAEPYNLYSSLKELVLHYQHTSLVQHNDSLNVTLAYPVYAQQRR
Chain of p110 delta (O00329 whole entry, canonical isoform): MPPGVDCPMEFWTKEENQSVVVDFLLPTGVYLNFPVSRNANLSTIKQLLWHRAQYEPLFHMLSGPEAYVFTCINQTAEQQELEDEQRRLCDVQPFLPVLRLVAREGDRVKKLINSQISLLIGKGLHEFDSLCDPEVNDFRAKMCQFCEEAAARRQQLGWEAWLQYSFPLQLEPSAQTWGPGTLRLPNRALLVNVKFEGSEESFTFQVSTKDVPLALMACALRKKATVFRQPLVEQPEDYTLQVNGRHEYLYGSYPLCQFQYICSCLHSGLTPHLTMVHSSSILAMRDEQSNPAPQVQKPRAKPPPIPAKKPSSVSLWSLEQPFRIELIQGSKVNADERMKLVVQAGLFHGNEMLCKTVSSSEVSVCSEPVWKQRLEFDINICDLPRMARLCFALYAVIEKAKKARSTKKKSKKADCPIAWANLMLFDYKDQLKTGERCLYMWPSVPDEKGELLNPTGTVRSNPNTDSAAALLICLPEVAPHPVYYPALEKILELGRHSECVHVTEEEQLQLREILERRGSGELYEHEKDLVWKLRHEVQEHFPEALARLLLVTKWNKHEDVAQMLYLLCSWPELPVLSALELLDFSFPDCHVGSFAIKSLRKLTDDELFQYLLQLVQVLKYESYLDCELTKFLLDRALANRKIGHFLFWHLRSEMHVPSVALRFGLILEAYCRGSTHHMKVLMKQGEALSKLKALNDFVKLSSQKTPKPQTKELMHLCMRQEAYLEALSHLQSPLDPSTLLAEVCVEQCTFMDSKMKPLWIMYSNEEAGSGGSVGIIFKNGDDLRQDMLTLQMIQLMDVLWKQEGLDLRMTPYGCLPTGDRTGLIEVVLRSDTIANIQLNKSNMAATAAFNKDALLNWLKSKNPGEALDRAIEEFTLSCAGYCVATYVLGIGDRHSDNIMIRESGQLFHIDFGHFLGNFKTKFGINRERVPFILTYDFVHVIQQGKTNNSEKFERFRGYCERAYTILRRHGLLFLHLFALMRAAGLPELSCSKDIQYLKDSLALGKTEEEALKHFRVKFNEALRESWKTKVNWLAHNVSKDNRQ
Chain of p110 delta (P27986 whole entry partner, canonical isoform): as the sequence (P27986 whole entry partner, canonical isoform) above

As for `CCN(CC)C1CCOC(c2c(-c3ccc4c(c3)OCCn3cc(-c5nc(C)nn5C(C)C)nc3-4)cnn2C)C1` (centres unmarked) [Example 341, N,N-diethyl-2-[4-[2-(2-isopropyl-5-methyl-1,2,4-triazol-3-yl)-5,6-dihydroimidazo[1,2-d][1,4]benzoxazepin-9-yl]-2-methyl-pyrazol-3-yl]tetrahydropyran-4-amine], the IC50 on p110 delta is 0.771 nM. In addition, the “IC50 p110 alpha/IC50 p110 delta” value on p110 alpha was determined as 71.1.

Consider `Cc1nc(-c2cn3c(n2)-c2ccc(N4CCC4[C@@H]4CCCN(C(C)C)C4)cc2OCC3)n(C(C)C)n1` (stereo partly drawn) [Example 342, 2-(1-isopropyl-3-methyl-1H-1,2,4-triazol-5-yl)-9-(2-((R)-1-isopropylpiperidin-3-yl)azetidin-1-yl)-5,6-dihydrobenzo[f]imidazo[1,2-d][1,4]oxazepine], for which the IC50 on p110 delta was found to be 0.16 nM. For the same molecule, the “IC50 p110 alpha/IC50 p110 delta” value on p110 alpha is given as 21.3.

On p110 delta, `Cc1nc(-c2cn3c(n2)-c2ccc(-c4cnn(C)c4C4CC(N(C)C(C)C)CCO4)cc2OCC3)n(C(C)C)n1` (centres unmarked) [Example 343, N-isopropyl-2-[4-[2-(2-isopropyl-5-methyl-1,2,4-triazol-3-yl)-5,6-dihydroimidazo[1,2-d][1,4]benzoxazepin-9-yl]-2-methyl-pyrazol-3-yl]-N-methyl-tetrahydropyran-4-amine] displayed an IC50 of 0.939 nM. In addition, the “IC50 p110 alpha/IC50 p110 delta” value on p110 alpha was determined as 53.

At p110 delta, `Cc1nc(-c2cn3c(n2)-c2ccc(-c4cnn(C)c4C4CC(N(C)C(C)C)CCO4)cc2OCC3)n(C(C)C)n1` (centres unmarked) [Example 344, N-isopropyl-2-[4-[2-(2-isopropyl-5-methyl-1,2,4-triazol-3-yl)-5,6-dihydroimidazo[1,2-d][1,4]benzoxazepin-9-yl]-2-methyl-pyrazol-3-yl]-N-methyl-tetrahydropyran-4-amine] showed an IC50 of 1.23 nM. For the same molecule, on p110 alpha, the “IC50 p110 alpha/IC50 p110 delta” value is 66.

Regarding `Cc1nc(-c2cn3c(n2)-c2cc(C(C)N4CCN(C5COC5)CC4)c(C)cc2OCC3)n(C(C)C)n1` (centres unmarked) [Example 345, 2-(2-isopropyl-5-methyl-1,2,4-triazol-3-yl)-9-methyl-10-[1-[4-(oxetan-3-yl)piperazin-1-yl]ethyl]-5,6-dihydroimidazo[1,2-d][1,4]benzoxazepine], the IC50 at p110 delta worked out at 8.82 nM. For the same molecule, at p110 alpha, the “IC50 p110 alpha/IC50 p110 delta” value was 14.3.

In the case of `Cc1nc(-c2cn3c(n2)-c2ccc(N4CCCC4CN(C)C)cc2OCC3)n(C(C)C)n1` (centres unmarked) [Example 346, 1-[1-[2-(2-isopropyl-5-methyl-1,2,4-triazol-3-yl)-5,6-dihydroimidazo[1,2-d][1,4]benzoxazepin-9-yl]pyrrolidin-2-yl]-N,N-dimethyl-methanamine], the IC50 at p110 delta worked out at 0.288 nM. Besides, the “IC50 p110 alpha/IC50 p110 delta” value at p110 alpha is given as 23.

For `Cc1nc(-c2cn3c(n2)-c2cc([C@@H](C)N4CCN(C(C)(C)CO)CC4)c(F)cc2OCC3)n(C(C)C)n1` [Example 347, (R)-2-(4-(1-(9-fluoro-2-(1-isopropyl-3-methyl-1H-1,2,4-triazol-5-yl)-5,6-dihydrobenzo[f]imidazo[1,2-d][1,4]oxazepin-10-yl)ethyl)piperazin-1-yl)-2-methylpropan-1-ol], the IC50 on p110 delta was determined as 5.53 nM. For the same molecule, at p110 alpha, the “IC50 p110 alpha/IC50 p110 delta” value was 47.5.

Regarding `Cc1nc(-c2cn3c(n2)-c2ccc(N4CCCC4CN(C)C)cc2OCC3)n(C(C)C)n1` (centres unmarked) [Example 348, 1-[1-[2-(2-isopropyl-5-methyl-1,2,4-triazol-3-yl)-5,6-dihydroimidazo[1,2-d][1,4]benzoxazepin-9-yl]pyrrolidin-2-yl]-N,N-dimethyl-methanamine], the IC50 at p110 delta came out at 0.445 nM. Further, the “IC50 p110 alpha/IC50 p110 delta” value at p110 alpha worked out at 31.4.

In the case of `Cc1nc(-c2cn3c(n2)-c2cc(C(C)N4CCN(CC(C)(C)O)CC4)c(C)cc2OCC3)n(C(C)C)n1` (centres unmarked) [Example 349, 1-[4-[1-[2-(2-isopropyl-5-methyl-1,2,4-triazol-3-yl)-9-methyl-5,6-dihydroimidazo[1,2-d][1,4]benzoxazepin-l0-yl]ethyl]piperazin-1-yl]-2-methyl-propan-2-ol], at p110 delta, the IC50 amounted to 4.21 nM. Further, on p110 alpha, the “IC50 p110 alpha/IC50 p110 delta” value came out at 18.1.

For the molecule `Cc1nc(-c2cn3c(n2)-c2cc([C@H](C)N4CCN(C(C)(C)CO)CC4)c(F)cc2OCC3)n(C(C)C)n1` [Example 350, (S)-2-(4-(1-(9-fluoro-2-(1-isopropyl-3-methyl-1H-1,2,4-triazol-5-yl)-5,6-dihydrobenzo[f]imidazo[1,2-d][1,4]oxazepin-10-yl)ethyl)piperazin-1-yl)-2-methylpropan-1-ol], on p110 delta, the IC50 came out at 1.99 nM. Moreover, the “IC50 p110 alpha/IC50 p110 delta” value at p110 alpha was found to be 212.

On to `Cc1nc(-c2cn3c(n2)-c2cc(-c4ccnn4[C@@H]4CCCN(C5COC5)C4)c(F)cc2OCC3)n(C(C)C)n1` [Example 351, (R)-9-fluoro-2-(1-isopropyl-3-methyl-1H-1,2,4-triazol-5-yl)-10-(1-(1-(oxetan-3-yl)piperidin-3-yl)-1H-pyrazol-5-yl)-5,6-dihydrobenzo[f]imidazo[1,2-d][1,4]oxazepine], for which, at p110 delta, the IC50 is 2.21 nM. Further, the “IC50 p110 alpha/IC50 p110 delta” value at p110 alpha is 16.6.

Molecule `Cc1nc(-c2cn3c(n2)-c2cc(-c4ccnn4[C@H]4CCCN(C5COC5)C4)c(F)cc2OCC3)n(C(C)C)n1` [Example 352, (S)-9-fluoro-2-(1-isopropyl-3-methyl-1H-1,2,4-triazol-5-yl)-10-(1-(1-(oxetan-3-yl)piperidin-3-yl)-1H-pyrazol-5-yl)-5,6-dihydrobenzo[f]imidazo[1,2-d][1,4]oxazepine] displayed an IC50 at p110 delta of 11.5 nM. Further, on p110 alpha, the “IC50 p110 alpha/IC50 p110 delta” value was found to be 18.

Regarding `Cc1nc(-c2cn3c(n2)-c2cc(-c4ccnn4C4CCCN(C(C)(C)CO)C4)c(F)cc2OCC3)n(C(C)C)n1` [Example 353, (R)-2-(3-(5-(9-fluoro-2-(1-isopropyl-3-methyl-1H-1,2,4-triazol-5-yl)-5,6-dihydrobenzo[f]imidazo[1,2-d][1,4]oxazepin-10-yl)-1H-pyrazol-1-yl)piperidin-1-yl)-2-methylpropan-1-ol], on p110 delta, the IC50 came out at 0.314 nM. The “IC50 p110 alpha/IC50 p110 delta” value on p110 alpha came out at 151.

`Cc1nc(-c2cn3c(n2)-c2cc(-c4cnn(C)c4C4CC(N(C)C)CCO4)c(F)cc2OCC3)n(C(C)C)n1` (centres unmarked) [Example 354, 2-[4-[9-fluoro-2-(2-isopropyl-5-methyl-1,2,4-triazol-3-yl)-5,6-dihydroimidazo[1,2-d][1,4]benzoxazepin-10-yl]-2-methyl-pyrazol-3-yl]-N,N-dimethyl-tetrahydropyran-4-amine] gave an IC50 at p110 delta of 0.66 nM. In addition, at p110 alpha, the “IC50 p110 alpha/IC50 p110 delta” value came out at 14.5.

`Cc1nc(-c2cn3c(n2)-c2cc(-c4ccnn4C4CCCN(C(C)(C)CO)C4)c(F)cc2OCC3)n(C(C)C)n1` [Example 355, (R)-2-(3-(5-(9-fluoro-2-(1-isopropyl-3-methyl-1H-1,2,4-triazol-5-yl)-5,6-dihydrobenzo[f]imidazo[1,2-d][1,4]oxazepin-10-yl)-1H-pyrazol-1-yl)piperidin-1-yl)-2-methylpropan-1-ol]: the IC50 on p110 delta came to 0.415 nM. Also, the “IC50 p110 alpha/IC50 p110 delta” value on p110 alpha came to 46.4.

At p110 delta, `COc1cc2c(cc1[C@@H](C)N1CCN(C(C)(C)C)CC1)-c1nc(-c3nc(C)nn3C(C)C)cn1CCO2` [Example 356, (R)-10-(1-(4-tert-butylpiperazin-1-yl)ethyl)-2-(1-isopropyl-3-methyl-1H-1,2,4-triazol-5-yl)-9-methoxy-5,6-dihydrobenzo[f]imidazo[1,2-d][1,4]oxazepine] had an IC50 of 1.05 nM. Moreover, the “IC50 p110 alpha/IC50 p110 delta” value on p110 alpha was 45.5.

`COc1cc2c(cc1[C@H](C)N1CCN(C(C)(C)C)CC1)-c1nc(-c3nc(C)nn3C(C)C)cn1CCO2` [Example 357, (S)-10-(1-(4-tert-butylpiperazin-1-yl)ethyl)-2-(1-isopropyl-3-methyl-1H-1,2,4-triazol-5-yl)-9-methoxy-5,6-dihydrobenzo[f]imidazo[1,2-d][1,4]oxazepine] showed an IC50 on p110 delta of 0.784 nM. For the same molecule, the “IC50 p110 alpha/IC50 p110 delta” value on p110 alpha is on record as 116.

As for `Cc1nc(-c2cn3c(n2)-c2cc(-c4cnn(C)c4C4CCCN(C(C)C)C4)c(F)cc2OCC3)n(C(C)C)n1` (centres unmarked) [Example 358, 9-fluoro-2-(2-isopropyl-5-methyl-1,2,4-triazol-3-yl)-10-[5-(1-isopropyl-3-piperidyl)-1-methyl-pyrazol-4-yl]-5,6-dihydroimidazo[1,2-d][1,4]benzoxazepine], the IC50 on p110 delta was determined as 1.56 nM. Moreover, the “IC50 p110 alpha/IC50 p110 delta” value at p110 alpha is reported as 67.1.

As to `Cc1nc(-c2cn3c(n2)-c2cc(-c4cnn(C)c4C4CCCN(C(C)C)C4)c(F)cc2OCC3)n(C(C)C)n1` (centres unmarked) [Example 359, 9-fluoro-2-(2-isopropyl-5-methyl-1,2,4-triazol-3-yl)-10-[5-(1-isopropyl-3-piperidyl)-1-methyl-pyrazol-4-yl]-5,6-dihydroimidazo[1,2-d][1,4]benzoxazepine], at p110 delta, the IC50 was 0.37 nM. Besides, the “IC50 p110 alpha/IC50 p110 delta” value at p110 alpha is 54.1.

Regarding `Cc1nc(-c2cn3c(n2)-c2ccc(-c4cn[nH]c4C4CCCN(C(C)C)C4)cc2OCC3)n(C(C)C)n1` (centres unmarked) [Example 360, 2-(2-isopropyl-5-methyl-1,2,4-triazol-3-yl)-9-[5-(1-isopropyl-3-piperidyl)-1H-pyrazol-4-yl]-5,6-dihydroimidazo[1,2-d][1,4]benzoxazepine], the IC50 on p110 delta was 0.311 nM. In addition, the “IC50 p110 alpha/IC50 p110 delta” value at p110 alpha is 24.

Take `Cc1nc(-c2cn3c(n2)-c2ccc(-c4cn[nH]c4C4CCCN(C(C)C)C4)cc2OCC3)n(C(C)C)n1` (centres unmarked) [Example 361, 2-(2-isopropyl-5-methyl-1,2,4-triazol-3-yl)-9-[5-(1-isopropyl-3-piperidyl)-1H-pyrazol-4-yl]-5,6-dihydroimidazo[1,2-d][1,4]benzoxazepine]: the IC50 at p110 delta came out at 0.972 nM. Besides, the “IC50 p110 alpha/IC50 p110 delta” value on p110 alpha is 23.6.

Take `Cc1nc(-c2cn3c(n2)-c2cc([C@H](C)N4CCN(C(C)(C)CO)CC4)ncc2OCC3)n(C(C)C)n1` [Example 364, (S)-2-(4-(1-(2-(1-isopropyl-3-methyl-1H-1,2,4-triazol-5-yl)-5,6-dihydroimidazo[1,2-d]pyrido[4,3-f][1,4]oxazepin-10-yl)ethyl)piperazin-1-yl)-2-methylpropan-1-ol]: the IC50 at p110 delta is 2.1 nM. For the same molecule, the “IC50 p110 alpha/IC50 p110 delta” value at p110 alpha is listed as 85.9.

Values taken from patent US9090628B2, “Benzoxazepin compounds selective for PI3K P110 delta and methods of use” (GENENTECH, INC., priority 2011, dated 2015).
